Laboratory results from ChEMBL document CHEMBL1155996, “Improving potency and selectivity of a new class of non-Zn-chelating MMP-13 inhibitors” (Bioorg Med Chem Lett, 2009).
In brackets after ≈: the same amount, converted by molar mass.

How the values were obtained:
[1] = Solubility of compound at pH 4.5 by high throughput screening; assay type: physicochemical; conditions: buffer
[2] = Solubility of compound at pH 7.4 by high throughput screening; assay type: physicochemical; conditions: buffer
Collagenase 3 = Collagenase 3 (Homo sapiens, UniProt P45452); assay: Inhibition of human MMP13 by FRET assay

solubility [1] [µg/mL]	solubility [2] [µg/mL]	IC50 (Collagenase 3) [µM]	SMILES
35 (≈ 93.1 µM)	37 (≈ 98.4 µM)	–	CNC(=O)[C@@H](NC(=O)c1ccc(-c2ccc(Cl)cn2)o1)C1CCCCC1
15 (≈ 37.7 µM)	17 (≈ 42.8 µM)	1.55	CNC(=O)[C@@H](NC(=O)c1ccc(-c2ccc(NC(C)=O)cc2)o1)C1CCCCC1
16 (≈ 40.3 µM)	17 (≈ 42.8 µM)	6	CNC(=O)c1ccc(-c2ccc(C(=O)N[C@H](C(=O)NC)C3CCCCC3)o2)cc1
7.4 (≈ 16 µM)	3.4 (≈ 7.35 µM)	–	CNC(=O)[C@@H](NC(=O)c1ccc(-c2ccc(OCc3cccc(C)n3)cn2)o1)C1CCCCC1
–	–	> 50	CNC(=O)[C@@H](NC(=O)c1ccc(-c2ccc(Oc3ccccc3)cc2)o1)C1CCCCC1
53 (≈ 122 µM)	61 (≈ 141 µM)	–	CNC(=O)[C@@H](NC(=O)c1ccc(-c2ccc(NS(C)(=O)=O)cc2)o1)C1CCCCC1
< 0.1	0.1 (≈ 0.205 µM)	–	CNC(=O)[C@@H](NC(=O)c1ccc(-c2ccc(OCc3cc4ccccc4o3)cn2)o1)C1CCCCC1
1.5 (≈ 4 µM)	1.9 (≈ 5.07 µM)	–	CNC(=O)[C@@H](NC(=O)c1ccc(-c2ccc(Cl)cc2)o1)C1CCCCC1
25 (≈ 55.4 µM)	31 (≈ 68.7 µM)	–	CNC(=O)[C@@H](NC(=O)c1ccc(-c2ccc(OCc3cc(C)n[nH]3)cn2)o1)C1CCCCC1
33 (≈ 85.6 µM)	> 49	–	CCOc1ccc(-c2ccc(C(=O)N[C@H](C(=O)NC)C3CCCCC3)o2)nc1
> 57	> 57	–	CNC(=O)[C@@H](NC(=O)c1ccc(-c2ccc(OCc3cc(C)n(C)n3)cn2)o1)C1CCCCC1
50 (≈ 115 µM)	52 (≈ 120 µM)	–	CNC(=O)[C@@H](NC(=O)c1ccc(-c2ccc(S(=O)(=O)NC)cc2)o1)C1CCCCC1
39 (≈ 89.1 µM)	43 (≈ 98.3 µM)	–	CNC(=O)[C@@H](NC(=O)c1ccc(-c2ccc(OCc3ccn[nH]3)cn2)o1)C1CCCCC1
1.4 (≈ 3.78 µM)	1.6 (≈ 4.32 µM)	–	CNC(=O)[C@@H](NC(=O)c1ccc(-c2ccc(OC)cc2)o1)C1CCCCC1
